Assay results reported in patent US8822414B2, “Heterocyclic compounds suitable for the treatment of dyslipidemia” (Cadila Healthcare Limited, priority 2010, dated 2014).

Tests used:
[1] = target: pro-protein convertase of the subtype nine binding to recombinant LDLR-AB domain (Homo sapiens, UniProt Q8NBP7); assay: in vitro quantitative solid phase binding assay (ELISA) of the subtype nine pro-protein convertase to immobilized LDLR; details: for inhibition at 1 µM: Concentration 1 μM; for inhibition at 10 µM: Concentration 10 μM; for inhibition at 100 µM: Concentration 100 μM
Sequence of pro-protein convertase of the subtype nine binding to recombinant LDLR-AB domain (Q8NBP7 153-692): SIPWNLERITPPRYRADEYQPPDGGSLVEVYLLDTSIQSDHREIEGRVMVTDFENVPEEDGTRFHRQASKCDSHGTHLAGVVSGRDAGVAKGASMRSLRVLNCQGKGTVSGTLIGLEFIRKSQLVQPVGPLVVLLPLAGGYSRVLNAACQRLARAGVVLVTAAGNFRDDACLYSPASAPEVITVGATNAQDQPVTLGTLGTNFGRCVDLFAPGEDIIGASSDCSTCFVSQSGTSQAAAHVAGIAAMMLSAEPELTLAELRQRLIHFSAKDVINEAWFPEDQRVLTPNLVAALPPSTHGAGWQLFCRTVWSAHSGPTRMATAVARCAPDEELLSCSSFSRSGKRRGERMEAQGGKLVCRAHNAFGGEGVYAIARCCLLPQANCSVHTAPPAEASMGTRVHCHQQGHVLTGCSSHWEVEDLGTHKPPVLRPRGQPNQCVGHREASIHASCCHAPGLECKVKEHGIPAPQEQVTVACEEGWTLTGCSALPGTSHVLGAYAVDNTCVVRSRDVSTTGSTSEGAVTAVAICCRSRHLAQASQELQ
Sequence of pro-protein convertase of the subtype nine binding to recombinant LDLR-AB domain (Q8NBP7 31-152 partner limits assumed): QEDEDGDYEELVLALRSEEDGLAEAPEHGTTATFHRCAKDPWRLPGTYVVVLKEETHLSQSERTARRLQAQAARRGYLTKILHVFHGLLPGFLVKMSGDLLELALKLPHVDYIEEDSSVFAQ
Protocol: The in vitro binding assay described hereinafter is a quantitative solid phase binding assay for determining the efficacy of the compounds. Plates were pre-coated with a recombinant LDLR-AB domain, which binds to the gene pro-protein convertase of the subtype nine. Test compound at different concentrations was added to the subtype gene and added to LDLR immobilized on the wells. The amount of bound gene is measured by binding it with biotinylated anti-His-tag monoclonal antibody, followed by binding with horseradish peroxidase conjugated streptavidin substrate. The color was quantified by ELISA reader at […] which reflects the relative amount of “the gene” that binds to LDLR in presence and absence of the inhibitor. EC50 values were calculated by nonlinear regression analysis using graph pad prism software. Each concentration point represents values in duplicates.

[2] = tested on: High Fat Diet C57 Mice; assay: LDL-C lowering activity in high fat diet C57 mice; assay type: in vivo; details: C57 mice on high fat diet, dose 30 mg, orally once a day, day 28 of treatment
Protocol: The in-vivo LDL-c lowering for test compound was tested in C57 mice which were kept on high fat diet for 4 weeks and the blood was collected by retro-orbital sinus puncture method under light ether anesthesia on day 0 (pretreatment). Animal are grouped based on LDL-C levels, after that 4-6 week treatment with vehicle or test compound orally at a dose of 30 mpk dose once a day was given. On completion of treatment on day 28 of the treatment the blood was collected for LDL-C levels measurement. The percent change in LDL-C in test compound group Vs Vehicle group was calculated.

Row | inhibition at 1 µM [1] [%] | inhibition at 10 µM [1] [%] | inhibition at 100 µM [1] [%] | inhibition at 5 µM ([1]; Concentration 5 μM) [%] | Structure (SMILES) | % Change Vs Vehicle Control LDL-C [2] [%] | % Change Vs Vehicle Control TC [2] [%]
1 | 29 | 35 | 57 | – | CCC(=NOCc1ccc(C(F)(F)F)cc1)c1ccc(OCC(=O)NCC2CCOCC2)cc1 [Example 1, N-((tetrahydro-2H-pyran-4-yl)methyl)-2-(4-(1-(((4-(trifluoromethyl)benzyl)oxy)imino)propyl)phenoxy)acetamide] | −48.8 ± 4.2 | −11.8 ± 2.7
2 | 29 | 46 | 46 | – | CCC(=NOCc1ccc(C(F)(F)F)cc1)c1ccc(OCC(=O)NCC2CCOCC2)nc1 [Example 22, N-((tetrahydro-2H-pyran-4-yl)methyl)-2-((5-(1-(((4-(trifluoromethyl)benzyl)oxy)imino)propyl)pyridin-2-yl)oxy)acetamide] | −64.6 ± 4.1 | −21.5 ± 2.8
3 | 16 | 38 | 63 | – | CC(=NOCc1ccc(C(F)(F)F)cc1)c1ccc(OCC(=O)NCC2CCOCC2)cc1 [Example 18, N-((tetrahydro-2H-pyran-4-yl)methyl)-2-(4-(1-(((4-(trifluoromethyl)benzyl)oxy)imino)ethyl)phenoxy)acetamide] | −75.2 ± 3.5 | −41.6 ± 1.9
4 | 15 | 20 | 29 | – | O=C(COc1ccc(C(CO)=NOCc2ccc(C(F)(F)F)cc2)cc1)NCC1CCOCC1 [Example 31, 2-(4-(2-hydroxy-1-(((4-(trifluoromethyl)benzyl)oxy)imino)ethyl)phenoxy)-N-((tetrahydro-2H-pyran-4-yl)methyl)acetamide] | −30.6 ± 3.6 | −3.5 ± 3.4
5 | 28 | 41 | 54 | – | CC(=NOCc1ccc(C(F)(F)F)cc1)c1ccc(OCC(=O)NCC2CCOCC2)nc1 [Example 3, N-((tetrahydro-2H-pyran-4-yl)methyl)-2-((5-(1-(((4-(trifluoromethyl)benzyl)oxy)imino)ethyl)pyridin-2-yl)oxy)acetamide] | −74.6 ± 2.0 | −33.6 ± 2.0
6 | – | 40 | 46 | – | O=C(COc1ccc(C=NOCc2ccc(C(F)(F)F)cc2)cn1)NCC1CCOCC1 [Example 19, N-((tetrahydro-2H-pyran-4-yl)methyl)-2-((5-((((4-(trifluoromethyl)benzyl)oxy)imino)methyl)pyridin-2-yl)oxy)acetamide] | – | –
7 | 20 | 49 | 61 | 23 | O=C(COc1ccc(C(Cc2ccccc2)=NOCc2ccc(C(F)(F)F)cc2)cc1)NCC1CCOCC1 [Example 11, 2-(4-(2-phenyl-1-(((4-(trifluoromethyl)benzyl)oxy)imino)ethyl)phenoxy)-N-((tetrahydro-2H-pyran-4-yl)methyl)acetamide] | – | –
8 | 15 | 31 | 41 | – | O=C(COc1ccc(C(CN2CCOCC2)=NOCc2ccc(C(F)(F)F)cc2)cc1)NCC1CCOCC1 [Example 14, 2-(4-(2-morpholino-1-(((4-(trifluoromethyl)benzyl)oxy)imino)ethyl)phenoxy)-N-((tetrahydro-2H-pyran-4-yl)methyl)acetamide] | – | –
9 | 14 | 35 | 48 | – | Cc1ccc(CON=C(Cc2ccccc2)c2ccc(OCC(=O)NCC3CCOCC3)c(C)c2)cc1 [Example 32, 2-(2-methyl-4-(1-(((4-methylbenzyl)oxy)imino)-2-phenylethyl)phenoxy)-N-((tetrahydro-2H-pyran-4-yl)methyl)acetamide] | – | –
10 | 10 | 15 | 29 | – | CCC(=NOCc1ccc(F)cc1)c1ccc(OCC(=O)NCC2CCOCC2)nc1 [Example 27, 2-((5-(1-(((4-fluorobenzyl)oxy)imino)propyl)pyridin-2-yl)oxy)-N-((tetrahydro-2H-pyran-4-yl)methyl)acetamide] | – | –
11 | 24 | 28 | 52 | – | CCC(=NOCc1ccccc1)c1ccc(OCC(=O)NCC2CCOCC2)nc1 [Example 24, 2-((5-(1-((benzyloxy)imino)propyl)pyridin-2-yl)oxy)-N-((tetrahydro-2H-pyran-4-yl)methyl)acetamide] | – | –
12 | – | 33 | 42 | – | O=C(COc1ccc(C(Cc2ccccc2)=NOCc2ccc(OC(F)(F)F)cc2)cc1)NCC1CCOCC1 [Example 39, 2-(4-(2-phenyl-1-(((4-(trifluoromethoxy)benzyl)oxy)imino)ethyl)phenoxy)-N-((tetrahydro-2H-pyran-4-yl)methyl)acetamide] | – | –
